Source: patent US20250129430A1, “HIGH ATP-AFFINITY PROTEIN AS THERAPEUTIC TARGET FOR INTRACTABLE CANCER MOLECULAR SUBTYPES AND INHIBITOR THEREOF” (VeraVerse Co., Ltd., priority 2021, published 2025)

How the values were obtained:
Assay in all cases: Cell viability drug screen, 12-point dose-response AUC
Type in all cases: cell-based, human
[1] = test system: NCC19; settings: NCC19 cells, 72 hours
Method in brief: (§1)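 Gastric cancer lines seeded 5×10^3 cells/well, dosed after 24 h with half-log 12-point compound dilutions (DMSO 0.5% control), then 72 h at 37 °C. Viability by luminescence, normalized to DMSO; AUC by trapezoidal method, averaged over repeats.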

[2] = test system: SNU484; settings: 72 hours; for Average Area Under the Viability Curve (AUC), AUC norm value: SNU484 cells (SEM subtype)
Method in brief: as §1

[3] = test system: SNU620; settings: SNU620 cells, 72 hours
Method in brief: as §1

[4] = test system: SNU16; settings: SNU16 cells, 72 hours
Method in brief: as §1

[5] = test system: SNU638; settings: SNU638 cells, 72 hours
Method in brief: as §1

[6] = test system: Hs746T; settings: 72 hours; for Average Area Under the Viability Curve (AUC), AUC norm value: Hs746T cells (SEM subtype)
Method in brief: as §1

[7] = test system: NCC20; settings: NCC20 cells, 72 hours
Method in brief: as §1

[8] = test system: SNU601; settings: SNU601 cells, 72 hours
Method in brief: as §1

[9] = test system: OCUM1; settings: OCUM1 cells, 72 hours
Method in brief: as §1

[10] = test system: SNU668; settings: 72 hours; for Average Area Under the Viability Curve (AUC), AUC norm value: SNU668 cells (SEM subtype)
Method in brief: as §1

[11] = test system: SNU1; settings: SNU1 cells, 72 hours
Method in brief: as §1

[12] = test system: MKN45; settings: 72 hours; for Average Area Under the Viability Curve (AUC), AUC norm value: MKN45 cells (non-SEM subtype)
Method in brief: (§2)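 Luminescent viability readings, taken 15 min after reagent addition at room temperature, were normalized to the 0.5% DMSO control to build 12-point dose-response curves. Trapezoidal integration gave the AUC. Cells had been plated at 5×10^3 per well and then exposed to half-log dilutions for 72 h.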

[13] = test system: KATO3; settings: KATO3 cells, 72 hours
Method in brief: as §1

[14] = test system: AGS; settings: 72 hours; for Average Area Under the Viability Curve (AUC), AUC norm value: AGS cells (non-SEM subtype)
Method in brief: as §2

[15] = test system: NCC24; settings: NCC24 cells, 72 hours
Method in brief: as §1

[16] = test system: SNU1750; settings: 72 hours; for Average Area Under the Viability Curve (AUC), AUC norm value: SNU1750 cells (SEM subtype)
Method in brief: as §1

[17] = test system: MKN1; settings: MKN1 cells, 72 hours
Method in brief: as §1

[18] = test system: YCC3; settings: YCC3 cells, 72 hours
Method in brief: as §1

[19] = test system: YCC11; settings: 72 hours; for Average Area Under the Viability Curve (AUC), AUC norm value: YCC11 cells (SEM subtype)
Method in brief: as §1

[20] = test system: SNU1967; settings: SNU1967 cells, 72 hours
Method in brief: as §1

[21] = test system: SNU216; settings: 72 hours; for Average Area Under the Viability Curve (AUC), AUC norm value: SNU216 cells (non-SEM subtype)
Method in brief: as §2

[22] = test system: YCC2; settings: YCC2 cells, 72 hours
Method in brief: as §1

[23] = test system: SNU719; settings: SNU719 cells, 72 hours
Method in brief: as §2

[24] = test system: MKN74; settings: MKN74 cells, 72 hours
Method in brief: as §2

[25] = test system: MKN28; settings: MKN28 cells, 72 hours
Method in brief: as §1

[26] = test system: NCC59; settings: NCC59 cells, 72 hours
Method in brief: as §1

[27] = test system: SK4; settings: 72 hours; for Average Area Under the Viability Curve (AUC), AUC norm value: SK4 cells (SEM subtype)
Method in brief: as §1

[28] = test system: NCI_N87; settings: NCI_N87 cells, 72 hours
Method in brief: as §1

[29] = test system: FU97; set-up: Average Area Under the Viability Curve (AUC), AUC norm value: scale not given here; settings: FU97 cells, 72 hours
Method in brief: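 Trapezoidal AUC of a 12-point, DMSO-normalized dose-response curve. Luminescent viability was measured after 72 h of exposure at 37° C to half-log serial dilutions (0.5% DMSO control), dosed 24 h after plating FU97 cells at 5×10^3 per well.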

For `C#Cc1cccc(Nc2ncnc3cc(OC)c(OCCCCCCC(=O)NO)cc23)c1` [CUDC-101], the “area under the viability curve (AUC), normalized” value (from here on “area … normalized”) ([1]; 12-point dose-response) was 1.187, the “area … normalized” value ([2]; SNU484 cells, 12-point dose-response) was 0.5831 and the “area … normalized” value ([3]; 12-point dose-response) was −0.4289. The “area … normalized” value ([4]; 12-point dose-response) was 0.427, the “area … normalized” value ([5]; 12-point dose-response) was −0.8807 and the “area … normalized” value ([6]; Hs746T cells, 12-point dose-response) was 0.4609. For the same molecule, the “area … normalized” value ([7]; 12-point dose-response) was −0.7885, the “area … normalized” value ([8]; 12-point dose-response) was −0.1084 and the “area … normalized” value ([9]; 12-point dose-response) was 0.3332. The “area … normalized” value ([10]; SNU668 cells, 12-point dose-response) was 0.9508, the “area … normalized” value ([11]; 12-point dose-response) was 0 and the “area … normalized” value ([12]; MKN45 cells, 12-point dose-response) was 1.5. The “area … normalized” value ([13]; 12-point dose-response) was 0.683, the “area … normalized” value ([14]; AGS cells, 12-point dose-response) was −0.9569 and the “area … normalized” value ([15]; 12-point dose-response) was 0.1814. The “area … normalized” value ([16]; SNU1750 cells, 12-point dose-response) was −1.203, the “area … normalized” value ([17]; 12-point dose-response) was 0.6267 and the “area … normalized” value ([18]; 12-point dose-response) was 0.7562. For the same molecule, the “area … normalized” value ([19]; YCC11 cells, 12-point dose-response) was 0.3451, the “area … normalized” value ([20]; 12-point dose-response) was −0.301 and the “area … normalized” value ([21]; SNU216 cells, 12-point dose-response) was −0.5746. The “area … normalized” value ([22]; 12-point dose-response) was −0.1991, the “area … normalized” value ([23]; 12-point dose-response) was 0.9348 and the “area … normalized” value ([24]; 12-point dose-response) was −0.5407. The “area … normalized” value ([25]; 12-point dose-response) was −0.7663, the “area … normalized” value ([26]; 12-point dose-response) was 1.8155 and the “area … normalized” value ([27]; SK4 cells, 12-point dose-response) was −0.04342. For the same molecule, the “area … normalized” value ([28]; 12-point dose-response) was −0.4217 and the “area … normalized” value ([29]; 12-point dose-response) was −0.4688.
In the case of `CO[C@H]1C(=O)[C@]2(C)[C@@H](OC)C[C@H]3OC[C@@]3(OC(C)=O)[C@H]2[C@H](OC(=O)c2ccccc2)[C@]2(O)C[C@H](OC(=O)[C@H](O)[C@@H](NC(=O)OC(C)(C)C)c3ccccc3)C(C)=C1C2(C)C` [Cabazitaxel (Jevtana), Cabazitaxel], the “Average Area Under the Viability Curve (AUC), AUC norm value” (“Average Area Under the Viability Curve” below) [1] is reported as 0, the “Average Area Under the Viability Curve” value [2] is reported as −0.7278 and the “Average Area Under the Viability Curve” value [3] is reported as −3.501. For the same molecule, the “Average Area Under the Viability Curve” value [4] was −2.759, the “Average Area Under the Viability Curve” value [5] was −0.1608 and the “Average Area Under the Viability Curve” value [6] was 1.085. For the same molecule, the “Average Area Under the Viability Curve” value [7] was −0.8551, the “Average Area Under the Viability Curve” value [8] was −1.688 and the “Average Area Under the Viability Curve” value [9] was 3.086. For the same molecule, the “Average Area Under the Viability Curve” value [10] was 0.4109, the “Average Area Under the Viability Curve” value [11] was −3.451 and the “Average Area Under the Viability Curve” value [12] was 2.138. The “Average Area Under the Viability Curve” value [13] was 4.95, the “Average Area Under the Viability Curve” value [14] was −2.201 and the “Average Area Under the Viability Curve” value [15] was −1.077. The “Average Area Under the Viability Curve” value [16] was 0.6058, the “Average Area Under the Viability Curve” value [17] was −1.266 and the “Average Area Under the Viability Curve” value [18] was 3.384. The “Average Area Under the Viability Curve” value [19] was −1.189, the “Average Area Under the Viability Curve” value [20] was 1.228 and the “Average Area Under the Viability Curve” value [21] was 2.335. The “Average Area Under the Viability Curve” value [22] was 0.2073, the “Average Area Under the Viability Curve” value [23] was 6.209 and the “Average Area Under the Viability Curve” value [24] was 0.4319. The “Average Area Under the Viability Curve” value [25] was −2.213, the “Average Area Under the Viability Curve” value [26] was 3.939 and the “Average Area Under the Viability Curve” value [27] was −0.7298. The “Average Area Under the Viability Curve” value [28] was −1.712 and the “Average Area Under the Viability Curve” value [29] was 0.3061.
In the case of `CC[C@@]1(O)C(=O)OCc2c1cc1n(c2=O)Cc2cc3ccccc3nc2-1` [Camptothecin], the “Average Area Under the Viability Curve” value [1] is reported as 0.9854, the “Average Area Under the Viability Curve” value [2] is reported as 1.047 and the “Average Area Under the Viability Curve” value [3] is reported as −1.867. The “Average Area Under the Viability Curve” value [4] was −1.529, the “Average Area Under the Viability Curve” value [5] was −0.9365 and the “Average Area Under the Viability Curve” value [6] was 0.3026. For the same molecule, the “Average Area Under the Viability Curve” value [7] was −1.829, the “Average Area Under the Viability Curve” value [8] was −1.853 and the “Average Area Under the Viability Curve” value [9] was −0.5033. The “Average Area Under the Viability Curve” value [10] was −1.202, the “Average Area Under the Viability Curve” value [11] was −2.182 and the “Average Area Under the Viability Curve” value [12] was 0.1203. For the same molecule, the “Average Area Under the Viability Curve” value [13] was 4.769, the “Average Area Under the Viability Curve” value [14] was −1.989 and the “Average Area Under the Viability Curve” value [15] was 0.5273. The “Average Area Under the Viability Curve” value [16] was 0.02348, the “Average Area Under the Viability Curve” value [17] was −0.642 and the “Average Area Under the Viability Curve” value [18] was 1.3493. The “Average Area Under the Viability Curve” value [19] was −0.5718, the “Average Area Under the Viability Curve” value [20] was −1.86 and the “Average Area Under the Viability Curve” value [21] was 1.3094. The “Average Area Under the Viability Curve” value [22] was 0, the “Average Area Under the Viability Curve” value [23] was 3.079 and the “Average Area Under the Viability Curve” value [24] was −0.08807. For the same molecule, the “Average Area Under the Viability Curve” value [25] was 0.3881, the “Average Area Under the Viability Curve” value [26] was 1.208 and the “Average Area Under the Viability Curve” value [27] was −0.8823. For the same molecule, the “Average Area Under the Viability Curve” value [28] was 0.7261 and the “Average Area Under the Viability Curve” value [29] was 1.097.
